{
  "source": "patent US7067619B2",
  "about": "“Integrin-binding peptides” (La Jolla Cancer Research Foundation, priority 1993, dated 2006)",
  "key": {"α5β1 integrin": {"molecular_target": "T1, α5β1 integrin (Homo sapiens, UniProt P05556+P08648)", "T1 construct": "The αvβ3, αvβ5 and α5β1 integrins were isolated from human placental extracts; from tissue; host or cells: human placenta", "T1 sequence (P08648 42-894 limits assumed)": "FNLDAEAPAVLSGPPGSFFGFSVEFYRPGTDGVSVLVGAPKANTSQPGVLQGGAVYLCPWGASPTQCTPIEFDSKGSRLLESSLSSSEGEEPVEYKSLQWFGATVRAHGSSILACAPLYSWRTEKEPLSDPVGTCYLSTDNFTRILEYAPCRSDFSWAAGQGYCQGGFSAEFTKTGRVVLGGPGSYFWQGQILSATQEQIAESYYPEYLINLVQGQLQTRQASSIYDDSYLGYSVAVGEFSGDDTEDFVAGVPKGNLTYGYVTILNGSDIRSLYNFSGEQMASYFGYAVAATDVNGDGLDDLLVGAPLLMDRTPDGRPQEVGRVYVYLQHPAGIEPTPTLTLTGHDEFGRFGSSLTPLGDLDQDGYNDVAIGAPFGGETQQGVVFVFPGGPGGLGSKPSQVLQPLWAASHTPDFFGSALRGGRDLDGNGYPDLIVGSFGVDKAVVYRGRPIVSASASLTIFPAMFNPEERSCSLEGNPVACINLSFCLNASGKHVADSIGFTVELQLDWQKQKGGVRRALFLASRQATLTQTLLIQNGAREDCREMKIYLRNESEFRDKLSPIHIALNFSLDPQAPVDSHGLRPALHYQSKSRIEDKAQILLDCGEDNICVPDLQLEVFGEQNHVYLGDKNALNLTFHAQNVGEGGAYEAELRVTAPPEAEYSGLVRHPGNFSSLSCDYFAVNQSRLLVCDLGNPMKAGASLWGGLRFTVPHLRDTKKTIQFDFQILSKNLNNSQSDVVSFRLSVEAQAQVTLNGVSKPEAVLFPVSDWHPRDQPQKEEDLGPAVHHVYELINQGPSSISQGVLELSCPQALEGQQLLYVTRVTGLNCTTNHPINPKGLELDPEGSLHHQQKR", "T1 sequence (P08648 895-1049 partner limits assumed)": "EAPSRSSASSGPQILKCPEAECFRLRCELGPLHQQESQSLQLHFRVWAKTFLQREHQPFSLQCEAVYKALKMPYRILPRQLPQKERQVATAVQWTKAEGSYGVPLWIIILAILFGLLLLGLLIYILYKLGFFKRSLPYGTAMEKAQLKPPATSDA", "T1 sequence (P05556 21-798)": "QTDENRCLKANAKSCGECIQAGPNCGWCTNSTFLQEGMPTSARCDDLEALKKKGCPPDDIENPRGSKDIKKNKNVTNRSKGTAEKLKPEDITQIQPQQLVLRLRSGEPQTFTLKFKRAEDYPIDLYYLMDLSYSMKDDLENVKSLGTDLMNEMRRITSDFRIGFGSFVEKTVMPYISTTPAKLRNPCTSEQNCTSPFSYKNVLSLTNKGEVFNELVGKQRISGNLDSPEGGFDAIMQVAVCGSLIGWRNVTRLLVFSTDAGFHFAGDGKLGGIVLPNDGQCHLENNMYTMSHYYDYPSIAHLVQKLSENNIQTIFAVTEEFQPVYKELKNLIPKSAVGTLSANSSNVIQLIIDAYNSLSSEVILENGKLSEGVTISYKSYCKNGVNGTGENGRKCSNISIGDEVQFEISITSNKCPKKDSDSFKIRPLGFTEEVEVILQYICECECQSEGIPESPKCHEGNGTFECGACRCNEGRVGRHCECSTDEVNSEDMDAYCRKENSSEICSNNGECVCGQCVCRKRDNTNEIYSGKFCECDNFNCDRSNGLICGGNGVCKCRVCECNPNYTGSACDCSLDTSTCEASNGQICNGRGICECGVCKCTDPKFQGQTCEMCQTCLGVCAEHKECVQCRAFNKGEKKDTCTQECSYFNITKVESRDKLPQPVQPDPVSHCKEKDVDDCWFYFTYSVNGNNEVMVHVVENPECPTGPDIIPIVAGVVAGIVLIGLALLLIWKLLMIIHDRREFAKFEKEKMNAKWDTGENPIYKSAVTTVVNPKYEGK", "assay": "Inhibition of peptide-displaying phage binding to α5β1 integrin by synthetic peptides", "details": "for binding affinity for α5β1: high binding affinity defined as IC50 of 1×10^−7 M or less in a competitive binding assay", "procedure": "Phage clone containing the RGDGW [SEQ ID NO:9] sequence was incubated for 1 hour in integrin-coated microliter wells in the presence of the competing peptides. After extensive washing, the phage remained bound were determined as described in Example XII.\n(§1) In addition, most of the phage-binding activity in the αvβ3 preparation was captured into microliter wells coated with antibodies against the αv or β3 subunits as described previously (Koivunen et al., J. Biol. Chem., 268:20205–10 (1993). The αIIbβ3 integrin was isolated from outdated platelets (Pytela et al., Science, 231:1559–1562 (1986)).\n(§2) Binding of individual cloned phage to integrins was studied in microliter wells as described in Koivunen et al., J. Cell. Biol., 124:373–380 (1994). Phage binding to α5β1 and αvβ3 were assayed in TBS buffer containing 1% BSA and 1 mM MnCl2 and binding to αvβ5 in the presence of 1 mM CaCl2. Phage that were bound were determined by their ability to infect F-pilus positive K91kan bacteria. Bacteria were grown overnight in microliter wells in the presence of tetracycline and the absorbance indicative of bacterial growth was read at 600 nm with an ELISA plate reader.\nRelative affinities of the […] [SEQ ID NO:12] and CRGDC [SEQ ID NO:37] peptides were determined by inhibition of binding of peptide-displaying phage to α5β1 integrin. Peptide-displaying phage were constructed as described by Scott and Smith, Science 249:386–390 (1990) and Example IV. Microwell plates were coated with various integrins as described by Koivunen et al., J. Biol. Chem., 268:20205–10 (1993) and Example II.\nThe binding of […] [SEQ ID NO:12]-containing peptide ligands to α5β1 integrin was performed as follows. RRETAWA [SEQ ID NO:8]-displaying phage were incubated for 1 hour in the presence of various concentrations of the cyclic peptides containing […] [SEQ ID NO:12] and containing CRGDC [SEQ ID NO:37] in microliter wells coated with the α5β1 integrin. Binding was quantitated by adding K91kan bacteria directly to the wells and growing the bacteria overnight at room temperature (Smith and Scott, Meth. Enzymol., 217:228–257 (1993), which is incorporated herein by reference).\nAdditional peptide motifs were tested as follows. ELRGDGW-displaying [SEQ ID NO:4] phage were added together with various concentrations of the cyclic peptides containing […] [SEQ ID NO:12] and containing CRGDC [SEQ ID NO:37] into microliter wells coated with the α5β1 integrin, incubated for 1 hour at room temperature and binding to wells was quantitated."}, "αvβ5 integrin": {"molecular_target": "αvβ5 integrin (Homo sapiens, UniProt P06756+P18084)", "sequence (P06756 31-889 limits assumed)": "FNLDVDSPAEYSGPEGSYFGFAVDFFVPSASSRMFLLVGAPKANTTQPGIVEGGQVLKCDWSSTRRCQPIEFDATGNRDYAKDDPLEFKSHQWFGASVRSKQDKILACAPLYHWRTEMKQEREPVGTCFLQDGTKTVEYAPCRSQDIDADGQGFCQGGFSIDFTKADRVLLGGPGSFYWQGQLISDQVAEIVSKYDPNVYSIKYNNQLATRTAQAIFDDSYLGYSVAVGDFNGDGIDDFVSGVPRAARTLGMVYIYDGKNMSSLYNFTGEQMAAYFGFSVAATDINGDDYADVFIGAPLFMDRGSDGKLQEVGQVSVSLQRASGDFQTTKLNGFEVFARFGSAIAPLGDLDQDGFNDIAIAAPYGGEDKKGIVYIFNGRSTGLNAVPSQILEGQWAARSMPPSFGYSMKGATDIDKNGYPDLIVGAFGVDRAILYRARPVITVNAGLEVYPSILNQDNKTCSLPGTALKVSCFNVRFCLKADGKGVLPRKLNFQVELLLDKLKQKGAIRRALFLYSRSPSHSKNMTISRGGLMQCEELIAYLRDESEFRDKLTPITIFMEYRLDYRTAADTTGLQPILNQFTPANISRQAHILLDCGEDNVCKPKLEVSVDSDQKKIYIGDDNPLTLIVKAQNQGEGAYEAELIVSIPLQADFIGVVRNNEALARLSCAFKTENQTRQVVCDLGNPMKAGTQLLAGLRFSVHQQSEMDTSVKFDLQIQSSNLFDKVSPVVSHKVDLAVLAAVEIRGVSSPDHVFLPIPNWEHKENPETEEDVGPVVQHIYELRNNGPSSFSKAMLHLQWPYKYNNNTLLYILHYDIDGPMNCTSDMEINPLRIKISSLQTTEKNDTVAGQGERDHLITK", "sequence (P06756 891-1048 partner limits assumed)": "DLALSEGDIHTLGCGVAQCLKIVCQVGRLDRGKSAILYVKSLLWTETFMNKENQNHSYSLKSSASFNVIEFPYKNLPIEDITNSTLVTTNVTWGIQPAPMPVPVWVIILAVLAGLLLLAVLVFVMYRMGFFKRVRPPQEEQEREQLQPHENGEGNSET", "sequence (P18084 24-799)": "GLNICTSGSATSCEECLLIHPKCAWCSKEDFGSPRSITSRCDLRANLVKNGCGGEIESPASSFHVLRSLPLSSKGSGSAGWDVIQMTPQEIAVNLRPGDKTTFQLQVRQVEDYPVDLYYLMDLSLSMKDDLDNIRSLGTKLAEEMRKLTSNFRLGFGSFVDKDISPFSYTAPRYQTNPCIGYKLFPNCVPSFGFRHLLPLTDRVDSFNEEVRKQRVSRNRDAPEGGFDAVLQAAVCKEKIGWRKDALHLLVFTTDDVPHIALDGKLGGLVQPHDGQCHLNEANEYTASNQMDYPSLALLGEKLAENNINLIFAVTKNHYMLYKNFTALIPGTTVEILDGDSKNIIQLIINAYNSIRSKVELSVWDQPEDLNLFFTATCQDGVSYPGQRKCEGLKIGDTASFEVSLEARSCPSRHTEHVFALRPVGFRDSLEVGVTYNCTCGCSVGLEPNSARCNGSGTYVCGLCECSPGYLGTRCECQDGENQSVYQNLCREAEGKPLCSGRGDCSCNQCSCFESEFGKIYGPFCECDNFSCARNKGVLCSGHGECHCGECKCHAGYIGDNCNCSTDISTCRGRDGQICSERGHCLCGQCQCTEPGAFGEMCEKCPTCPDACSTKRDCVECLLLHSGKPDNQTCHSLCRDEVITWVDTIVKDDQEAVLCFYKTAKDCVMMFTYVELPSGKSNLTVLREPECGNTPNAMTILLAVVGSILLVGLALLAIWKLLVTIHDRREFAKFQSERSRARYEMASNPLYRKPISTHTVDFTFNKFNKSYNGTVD", "assay": "Panning and binding of peptide-displaying phage on αvβ5 integrin", "set-up": "The αvβ3, αvβ5 and α5β1 integrins were isolated from human placental extracts; from tissue; host or cells: human placenta", "source_text": "as §1\nPeptide libraries were constructed in fuse 5 vector (Scott and Smith, Science 249:386–390 (1990)) as described previously (Koivunen et al., J. Cell Biol., 124:373–380 (1994). The CX5C, CX6C, CX7C and CX9 [SEQ ID NOs:39–42, respectively] libraries were prepared using synthetic oligonucleotides containing core sequences TGT(NNK)5TGT, TGT(NNK)6TGT, TGT(NNK)7TGT and TGT(NNK)9 [SEQ ID NOS:43–46, respectively] (N=equal molar mixture of A, C, G, T; K=G or T), respectively. The oligonucleotides were made double-stranded by PCR amplification with 5 cycles, purified and ligated to the N-terminus of pIII gene of fuse 5 vector. […]\nas §2, with “Biol., 124:373–380 (1994). Phage binding to α5β1 and αvβ3 were assayed in TBS buffer containing 1% BSA and 1 mM MnCl2 and binding to αvβ5 in the presence of 1 mM CaCl2.” left out"}},
  "note": "Bridge positions count the residues as written; N and C are the ends. Ends that are not written are not given here. Peptide text beside a SMILES is read from it.",
  "data": [
    {"compound": "A*CPSRLDSPC*G (ACPSRLDSPCG; disulfide 2-10 (inferred))", "values": [
      {"measurement": "inhibition of RGD phage binding to α5β1", "setting": "α5β1 integrin; RGDGW phage, FIG. 9", "value": "no inhibition"}
    ]},
    {"compound": "GACRRETAWACGA", "values": [
      {"measurement": "inhibition of binding of ELRGDGW-displaying phage to α5β1 integrin", "setting": "α5β1 integrin; ELRGDGW-displaying phage, CRRETAWAC compared with CRGDC, FIG. 2", "value": "approximately the same degree"},
      {"measurement": "efficiency of inhibition of RRETAWA-displaying phage binding to α5β1 relative to CRGDC containing peptides", "setting": "α5β1 integrin; RRETAWA-displaying phage, comparator CRGDC, FIG. 4", "value": "at least 10 times"},
      {"measurement": "binding affinity for α5β1", "setting": "α5β1 integrin; listed as CRRETAWAC", "value": "high binding affinity"},
      {"measurement": "binding affinity for α5β1", "setting": "α5β1 integrin; listed as GA*CRRETAWAC*GA", "value": "high affinity"}
    ]},
    {"compound": "C[C@H](N)C(=O)N[C@H]1CSSC[C@@H](C(=O)NCC(=O)O)NC(=O)[C@H](Cc2ccccc2)NC(=O)[C@@H]2CSSC[C@H](NC(=O)[C@H](CC(=O)O)NC1=O)C(=O)N[C@@H](CCCNC(=N)N)C(=O)NCC(=O)N[C@@H](CC(=O)O)C(=O)N2", "note": "(H-ACDCRGDCFCG-OH; disulfide 2-10, 4-8)", "values": [
      {"measurement": "integrin preference of phage expressing the peptide", "setting": "αvβ5 integrin; phage attachment experiments", "value": "bound preferentially to the αvβ5 integrin"},
      {"measurement": "binding of peptide-displaying phage to the αvβ5 integrin", "setting": "αvβ5 integrin; phage-displayed sequence", "value": "bound strongly"}
    ]}
  ]
}
